Where a name gives a salt, the structure may show the parent alone.
Key:
[1] = test system: SARS-COV-2 strain NIV 2020-770; assay: microbe, parasite or virus in culture; type: cell-based; details: for IC50: Severe acute respiratory syndrome coronavirus 2, 72 h; for SI (selectivity index): against SARS-CoV-2
[2] = Cell cytotoxicity determination (MTT) in Vero CCL-81 cells; type: cell-based; details: monkey
Experimental: Cell Cytotoxicity determination: 100 μL Vero CCL-81 cells were seeded on to 96 well plate at a density of 3×10^6 cells/mL. The plates were incubated for 24 hrs at 37° C. with 5% CO2. After overnight incubation the spent medium was discarded and 100 μL of different concentrations of each drugs prepared earlier from the stock was added to the respective wells in quadruplets. The plates were incubated for 72 hr at 37° C. in 5% CO2. After the incubation, the medium containing drug was discarded. The cell monolayer was washed by adding 100 μL of 1×PBS. 100 μL of plain MEM and 50 μl of MTT (2 mg/ml concentration) was added to each well. Followed by incubation for 4 hrs at 37° C. in 5% CO2. At the end of incubation, the cell supernatant was discarded and 200 μl of DMSO was added to each well to dissolve the formazan crystals. 25 μL of Sorensen's glycine buffer was added immediately to each well. The plates were incubated in dark for 30 min at room temperature. The OD was measured at 570 nm using ELISA plate reader. CC50 value was plotted using Prism Pad application.

[3] = In vitro toxicity in WI-38 cells (MTS-PMS kit); type: cell-based; details: human, WI-38 human lung fibroblast cells, read-out: IC50 (cytotoxicity)
From the text: (§1) The toxicity of ((((((R)-1-(6-amino-9H-purin-9-yl) propan-2-yl) oxy) methyl) (phenoxy) phosphoryl)oxy)methyl pivalate fumarate and Metabolite of compound of formula 1 in different human lung cells viz, WI-38 (human lung fibroblast cells) and Calu-3 (human lung bronchial cells) by using the MTS-PMS kit investigated.
(§2) MTS-PMS kit details (CellTiter 96@ Aqueous kit)
This is a colorimetric method for determining the number of viable cell measures viable cells in proliferation, cytotoxicity or chemosensitivity assays. The assay is composed of solutions of a novel tetrazolium compound [3-(4,5-dimethylthiazol-2-yl)-5-(3-carboxymethoxyphenyl)-2-(4-sulfophenyl)-2H-tetrazolium, inner salt; MTS] and an electron coupling reagent (phenazine methosulfate) PMS. MTS is bioreduced by cells into a formazan product that is soluble in tissue culture medium. The absorbance of the formazan product at 490 nm can be measured directly from 96-well assay plates without additional processing. The conversion of MTS into the aqueous soluble formazan product is accomplished by dehydrogenase enzymes found in metabolically active cells. The quantity of formazan product as measured by the amount of 490 nm absorbance is directly proportional to the number of living cells in culture.
Respective cells were harvested from exponential phase cultures, […] on the cell line's growth rate. After a 24 h recovery period to allow the cells to resume exponential growth. TPF or Metabolite of compound of formula 1 was applied at 6-8 concentrations in duplicate and treatment continued for different time points. After completion of incubation 20 μL/well MTS-PMS reagent was added to each well (MTS-PMS was prepared as follows: CellTiter 96@AQueous Assay Reagents MTS Solution and the PMS Solution should be thawed before use. Remove 2.0 ml of MTS Solution. Add […] of PMS Solution to the 2.0 ml of MTS Solution immediately). Following an incubation period of up to four hours, the plate was read to 490 nm. For calculations, the mean values of duplicate data were used. Sigmoidal concentration-response curves were fitted to the data points (T/C values) obtained for each cell line using 4 parameter non-linear curve fit.
Cells were harvested from exponential phase cultures, […] on the cell line's growth rate. After a 24 h recovery period to allow the cells to resume exponential growth. TPF or Metabolite of compound of formula 1 was applied at 6-8 concentrations in duplicate and treatment continued for different time points. For Calu-3 cells the treatment was the treatment was for 72 hrs while WI-38 cells were treated for 48 and 96 hrs. After the treatment of cells, 20 μL/well MTS-PMS reagent was added. Following an incubation period of up to four hours, the plate was read to 490. […]

[4] = In vitro toxicity in Calu-3 cells (MTS-PMS kit); type: cell-based; details: human, Calu-3 human lung bronchial cells, read-out: IC50 (cytotoxicity)
From the text: as §1, §2
This is a colorimetric method for determining the number of viable cell measures viable cells in proliferation, cytotoxicity or chemosensitivity assays. […] The absorbance of the formazan product at 490 nm can be measured directly from 96-well assay plates without additional processing. […] The quantity of formazan product as measured by the amount of 490 nm absorbance is directly proportional to the number of living cells in culture.
Respective cells were harvested from exponential phase cultures, […] on the cell line's growth rate. […] Following an incubation period of up to four hours, the plate was read to 490 nm. […]
Cells were harvested from exponential phase cultures, […] on the cell line's growth rate. […] Following an incubation period of up to four hours, the plate was read to 490. […]

[5] = test system: A549 (human lung alveolar cells) monolayer
in vitro = details: human

Structure (SMILES) | IC50 [1] | SI (selectivity index) ([1]; window between cytotoxicity (CC50) and antiviral activity (IC50)) | SI (selectivity index) ([1]; window between cytotoxicity (CC50) and antiviral activity (IC50), listed as compound of formula 2) | CC50 at 72 h [2] | IC50 at 48 h [3] | IC50 at 96 h [3] | IC50 at 72 h [4] | permeability classification [5] | Papp A→B (in vitro) | SI (selectivity index) ([1]; window between cytotoxicity (CC50) and antiviral activity (IC50), fumarate) | SI (selectivity index) ([1]; window between cytotoxicity (CC50) and antiviral activity (IC50); fumarate)) | P-app ([5]; apical to basal)
C[C@H](Cn1cnc2c(N)ncnc21)OCP(=O)(O)Oc1ccccc1 [Compound of formula 2, tenphenol] | ~12 µM | >8.33 | 8.33 | > 100 µM | > 100 µM | > 100 µM | > 100 µM | moderately permeable | < 20 ×10⁻⁶ cm/s | – | – | –
C[C@H](Cn1cnc2c(N)ncnc21)OC[P@@](=O)(OCOC(=O)C(C)(C)C)Oc1ccccc1 [((((((R)-1-(6-amino-9H-purin-9-yl)propan-2-yl)oxy)methyl) (phenoxy)phosphoryl)oxy)methyl pivalate fumarate] | < 1 µM | – | – | > 100 µM | > 100 µM | > 100 µM | > 100 µM | highly permeable | – | >100 | > 100 | > 20 ×10⁻⁶ cm/s

— patent US20240009214A1 (priority 2020, published 2024)
